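In this assay, cells in 96-well plates receive the compound at five concentrations for 48 hours. Endpoints are linearly interpolated between the surrounding concentrations. Abbreviation: GI50, concentration required for 50% inhibition of growth. TGI is the concentration that stops growth completely.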
Key:
Experiment in all cases: NCI-60 cell line screen, 48 h
ACHN renal = test system: ACHN renal
K-562 leukemia = test system: K-562 leukemia
MDA-MB-231 breast = test system: MDA-MB-231 breast
SF-268 CNS = test system: SF-268 CNS
SF-539 CNS = test system: SF-539 CNS
SK-MEL-2 melanoma = test system: SK-MEL-2 melanoma
NCI-H226 lung = test system: NCI-H226 lung
UACC-62 melanoma = test system: UACC-62 melanoma
UACC-257 melanoma = test system: UACC-257 melanoma
HT29 colon = test system: HT29 colon

| SMILES | TGI (ACHN renal) [µM] | TGI (K-562 leukemia) [µM] | TGI (MDA-MB-231 breast) [µM] | TGI (SF-268 CNS) [µM] | TGI (SF-539 CNS) [µM] | TGI (SK-MEL-2 melanoma) [µM] | TGI (NCI-H226 lung) [µM] | TGI (UACC-62 melanoma) [µM] | TGI (UACC-257 melanoma) [µM] | TGI (HT29 colon) [µM] | GI50 (UACC-62 melanoma) [µM] | GI50 (ACHN renal) [µM] | GI50 (K-562 leukemia) [µM] | GI50 (HT29 colon) [µM] | GI50 (MDA-MB-231 breast) [µM] | GI50 (SF-268 CNS) [µM] | GI50 (SF-539 CNS) [µM] | GI50 (SK-MEL-2 melanoma) [µM] | GI50 (NCI-H226 lung) [µM] | GI50 (UACC-257 melanoma) [µM] |
| --- | --- | --- | --- | --- | --- | --- | --- | --- | --- | --- | --- | --- | --- | --- | --- | --- | --- | --- | --- | --- |
| Cc1cc(S(=O)(=O)N=C2Nc3cccc4cccc(c34)N2)c(S)cc1Cl | > 100 | > 100 | > 100 | > 100 | > 100 | > 100 | > 100 | > 100 | > 100 |  |  |  |  |  |  |  |  |  |  |  |
| O=C1c2cc3c(cc2CC12Cc1ccc4c(c1C2=O)CCC4)CCC3 (stereo not given) | > 100 | > 100 | > 100 | > 100 | > 100 | > 100 |  |  | > 100 | > 100 |  |  |  |  |  |  |  |  |  |  |
| COC1(CC[C@H](C)COC2OC(CO)C(O)C(O)C2O)O[C@H]2C[C@H]3[C@@H]4CC=C5C[C@@H](OC6OC(CO)C(OC7OC(C)C(O)C(O)C7O)C(O)C6OC6OC(C)C(O)C(O)C6O)CC[C@]5(C)[C@H]4CC[C@]3(C)[C@H]2[C@@H]1C (stereo not given in full) | 29.4 | > 100 | 21.1 | 10.3 | 4.05 | 13.6 | 31.7 | 21.6 | 28.7 | 6.8 | 6.95 |  |  |  |  |  |  |  |  |  |
| CSc1nc(Cl)c2c(n1)Sc1nc3ccccc3n1C2O (stereo not given) | > 100 | > 100 | > 100 | 55 | 3.8 | > 47.4 | 95 | > 100 | > 100 | 25.4 |  |  |  |  |  |  |  |  |  |  |
| CCOC(=O)/C=C/CCC(C)(C)COC(C)=O | > 10 | > 10 | > 10 | > 10 | > 10 | > 10 | > 10 | > 10 | > 10 | > 10 |  |  |  |  |  |  |  |  |  |  |
| COc1ccc2c(c1OC)C(=O)N1C2=Cc2c(cc3c(c2OC)OCO3)CC1N(C)C (stereo not given) | > 100 | > 100 | > 100 | > 100 | > 100 | > 100 | > 100 | > 100 | > 100 |  |  |  |  |  |  |  |  |  |  |  |
| Cc1c(C(=O)NNc2ccccc2)n2c(=S)[nH]nc2c2ccccc12 | > 100 | > 100 | > 100 | > 100 | > 100 | > 100 | > 100 | > 100 | > 100 | > 100 |  |  |  |  |  |  |  |  |  |  |
| O=[N+]([O-])c1ccc(-c2csc(=[N+]3CCCCC3)s2)cc1 | > 100 | > 100 |  | > 100 | > 100 | 60.2 |  | > 100 | 31.4 | > 100 |  |  |  |  |  |  |  |  |  |  |
| COc1ccc(C(=O)/C=C/SC(=NC#N)SC)cc1 | 46.7 | > 100 | 33.2 | 70.3 | 45.7 | 43.8 | 43.5 | 43.8 | 40.5 | 49.5 |  |  |  |  |  |  |  |  |  |  |
| CCCCNC(=O)Cn1c2ccc(Br)cc2c2nc3ccccc3nc21 | > 100 | > 100 | > 100 | > 100 |  | > 100 | > 100 | > 100 | > 100 | > 100 |  |  |  |  |  |  |  |  |  |  |
| CSc1nc(=O)c2nc(-c3cccs3)c(-c3cccs3)nc2n1C | > 100 | > 100 | > 100 | > 100 |  | > 100 |  | > 100 | > 100 | > 100 |  |  |  |  |  |  |  |  |  |  |
| CC1=C(C)SC(=C2Sc3c(n(C)c(=O)n(C)c3=O)S2)S1 | > 100 | > 100 | 75.3 | > 100 | 26.8 | 79.1 | 48.5 | > 100 | > 100 | > 100 |  |  |  |  |  |  |  |  |  |  |
| C=CN(C=C)C(=O)Cn1cc(-c2ccccc2)nn1 | > 100 | > 100 | > 100 | > 100 | > 100 | > 100 |  |  | > 100 | > 100 |  |  |  |  |  |  |  |  |  |  |
| COc1cc2c(c(OC)c1)[C@H](C)N(Cc1ccccc1)C(C)C2 (stereo not given in full) | > 100 | > 100 | > 100 | > 100 | 48.4 |  | 84.6 | > 100 | > 100 | 75.2 |  |  |  |  |  |  |  |  |  |  |
| Nc1c(N2CCOCC2)c(=O)nc2[nH]/c(=C\c3ccccc3O)c(=O)n12 | > 100 | > 100 | > 100 | > 100 | > 100 |  | > 100 |  | > 100 | > 100 |  |  |  |  |  |  |  |  |  |  |
| CCN(CC)CCCCNc1c2ccc(Cl)cc2nc2ccc(OC)cc12 | 2.27 | 3.56 | 2.11 | 3.33 | 2.73 | 3.31 | 3.35 | 3.47 | 3.91 | 1.27 | 1.69 | 0.371 | 0.578 | 0.141 | 0.478 | 0.797 | 1.19 | 1.15 | 1.32 | 1.8 |
| O=C(c1ccc([N+](=O)[O-])cc1)N1CCCC1 | > 100 | > 100 | > 100 | > 100 | > 100 |  | > 100 | > 100 | > 100 | > 100 |  |  |  |  |  |  |  |  |  |  |
| CN1c2ccccc2C2=C(c3ccccc3)CC[C@@H](C(=O)N3C4CC5CC[C@@]4(CS3(=O)=O)C5(C)C)[C@@H]21 (stereo not given in full) | > 100 | > 100 | > 100 | > 100 | > 100 |  | > 100 | > 100 | > 100 | > 100 |  |  |  |  |  |  |  |  |  |  |
| CO[P@@]1(=O)O[C@@H](c2ccccc2)[C@H](O)[C@]1(O)c1ccccc1 | > 100 | > 100 | > 100 | > 100 | > 100 | > 100 | > 100 | > 100 | > 100 | > 100 |  |  |  |  |  |  |  |  |  |  |
| NC(=O)c1ccc[n+](C2=C([O-])c3ccccc3C(=O)/C2=N\S(=O)(=O)c2ccccc2)c1 | 26.4 | > 100 | 34.5 | 31.3 | 32.2 | 25.7 | 28.9 | 32.1 | 27.7 | 34 |  |  |  |  |  |  |  |  |  |  |

Reference: PubChem BioAssay (NCI)
